Measurements as given in paper PMC8469489, “Effect of Lactic Acid Bacteria on the Pharmacokinetics and Metabolism of Ginsenosides in Mice” (Pharmaceutics, 2021).
Like-named read-outs stand apart in the source and are kept apart here.

Experiments:
[1] = Caco-2 permeability (apical to basal); conditions: human, Caco-2, pH 7.4
Procedure: (§2) The culture medium was replaced every other day. On the day of the experiment, the growth medium was discarded, and the attached cells were washed with prewarmed HBSS (pH 7.4) and preincubated with HBSS for 20 min at 37 °C, and the permeability assay was conducted as previously described [53]. Briefly, to measure the apical to basal permeability of each ginsenoside, 0.5 mL of HBSS containing 50 µM of individual ginsenoside (GRb1, GRb2, GRc, GRd, GRe, GRf, GRg1, GRg3, GRh1, GRh2, GF1, GF2, CK, PPD, or PPT) was added to the apical side (inside of the insert) and 1.5 mL of fresh HBSS was added to the basal side of the insert. […] Aliquots (0.1 mL) in basal side were transferred to clean tubes and stored at −80 °C until further analysis. Transport study was performed for 1 h based on the linearity of the cumulative transport amounts of ginsenosides against the transport time. The integrity of cell monolayers was evaluated before and after the permeability experiments by measuring the transepithelial electrical resistance (TEER) values using an epithelial volt/ohm meter (World Precision Instruments; Sarasota, FL, USA). […]
(§3) For the permeability calculation, the transport rate of ginsenosides and marker conpounds was calculated from the slope of the regression line from the mean permeated amounts vs. incubation time plot.

[2] = Plasma protein binding by rapid equilibrium dialysis; format: in vitro ADME; conditions: 4 h at 37 °C
Procedure: Briefly, 100 μL of mouse plasma containing 1 μM of each ginsenoside was added to the semipermeable membrane’s inner sample chamber (molecular weight cut-off 8000 Da), and 300 μL of PBS was added to the outer buffer chamber. The samples were then incubated for 4 h at 37 °C on a shaking incubator at 300 rpm, followed by collecting 30-μL aliquots from both the sample and buffer chambers.
Subsequent protocols were identical to the method described above except for the use of ice-cold IS solution (200 μL; 0.05 ng/mL berberine in acetonitrile) to 30 μL of the reaction samples.
Plasma protein binding was calculated using the following equation [31, 60]: Plasma protein binding=(1−Drug concentration in buffer chamber/Drug concentration in plasma sample chamber)×100(%).

[3] = cited from earlier work
Caco-2 cells = conditions: cited from earlier work
Caco-2 cell monolayers = conditions: Caco-2, pH 7.4
Procedure: as §2, §3

[4] = Pharmacokinetics of ginsenosides after single oral RGE with or without amoxicillin treatment; format: in vivo, mice; conditions: mouse, in vivo, po, 2 g/kg
Procedure: Male ICR mice (7-weeks-year-old, 30–35 g) were purchased from Samtako Co. (Osan, Kyunggi-do, Korea). Animals were acclimatized for 1 week in an animal facility at Kyungpook National University. Food and water were available ad libitum.
(§1) Before blood sampling, mice were anesthetized using isoflurane (isoflurane vaporizer to 2% with oxygen flow at 0.8 L/min) for 5 min.

[5] = tested on: lactic acid bacteria (LAB); assay: In vitro RGE fermentation with LAB
[6] = Recovery of ginsenosides from urine and feces for 48 h after RGE, amoxicillin vs control; conditions: feces 48 h after single oral RGE 2 g/kg; vs control
Procedure: Aliquots (200 μL) of an IS (0.05 ng/mL berberine in methanol) were added to 30 μL of plasma or urine samples. Aliquots (600 μL) of an IS methanol solution containing 0.05 ng/mL berberine were added to 100 μL of 10% feces homogenate samples. […] After centrifugation, 200 μL of the supernatant was transferred to a clean tube and dried under a nitrogen stream at 40 °C. The residue was reconstituted using 100 μL of 70% methanol supplemented with 0.1% formic acid, and a 10-μL aliquot was injected into the LC–MS/MS system.

[7] = Recovery of ginsenosides from urine and feces for 48 h after RGE, amoxicillin with or without LAB; conditions: feces 48 h after single oral RGE 2 g/kg; Amoxicillin + LAB vs amoxicillin
Procedure: (§4) Mice received amoxicillin (n = 12, 20 mg/kg, dissolved in water at 2 mL/kg, twice daily) for 3 days via oral gavage. From the 4th day, mice from the LAB + amoxicillin treatment group received LAB (2 g/kg suspended in water at 2 mL/kg, once daily) for 7 days via oral gavage. Mice from the amoxicillin treatment group received water (2 mL/kg, once daily) for 7 days via oral gavage.

[8] = Pharmacokinetics of ginsenosides after single oral RGE after amoxicillin with or without repeated LAB treatment; conditions: single oral RGE 2 g/kg
Procedure: as §4
Blood sampling was performed using a sparse sampling method via the right or left retro-orbital vein under isoflurane anesthesia at 0, 2, 4, and 8 h after the RGE administration through the heparinized capillary tube. […] After centrifugation of the blood samples at 10,000× g for 1 min, 30 μL aliquots of plasma were stored at −80 °C until the analysis of the ginsenosides. Subsequent protocols were identical to the amoxicillin treated group.
Pharmacokinetic parameters were calculated using WinNonlin (version 5.1, Pharsight, Mountain View, CA, USA) by a non-compartmental analysis.

[9] = tested on: lactic acid bacteria (LAB); assay: Incubation of single ginsenoside with LAB (formation rate of metabolite ginsenoside); format: in vitro ADME; conditions: 7 days, 37 °C, MRS broth
Procedure: To compare the involvement of LAB on individual ginsenoside, an aliquot (10 μL) of each ginsenoside stock solution (10 mM in methanol) was mixed with autoclaved MRS broth (550 mg/10 mL in distilled water) and added 2 g of LAB (contained 1 billion CFU). Then, the mixture was incubated for 7 days in a shaking incubator at 37 °C and 300 rpm. For the analysis of ginsenosides, 0.2 mL aliquot of incubation mixture was collected every 24 h for 7 days. The incubation medium was diluted 100-fold with distilled water and stored at −80 °C. For the ginsenoside analysis, 200 μL of an IS solution (0.05 ng/mL berberine in methanol) was added to 30 μL of 100-fold diluted samples.

[10] = parameters: method as in PMID 26470874; conditions: 10–60 mg, intramuscular injection; cited from earlier work
LAB = tested on: LAB; parameters: method as in PMID 15902467; conditions: cited from earlier work
[11] = Plasma amoxicillin concentrations after repeated oral administration of amoxicillin; format: in vivo, mice; conditions: at 24, 48, and 72 h after the beginning of amoxicillin treatment (20 mg/kg/day oral, twice daily, 3 days)
Procedure: as §1
The standard calibration curve for amoxicillin was linear in the concentration range of 2–5000 ng/mL for the plasma samples, and the interday and intraday precision and accuracy were <15%.

[12] = tested on: lactic acid bacteria (LAB)

CC(C)NCC(O)COc1cccc2ccccc12 (centres unmarked) [propranolol]
Papp A→B at 1 h [1]: 21.6 ± 2.35 ×10⁻⁶ cm/s
fraction unbound at 4 h, 1 μM ([2]; pooled mouse plasma): 0.103
Plasma protein binding reference values [3]: 87–96%
Papp,AB reference values (Caco-2 cells): 18.8–33.1 × 10^−6 cm/s

CC(C)=CCC[C@](C)(O)[C@H]1CC[C@]2(C)[C@@H]1[C@H](O)C[C@@H]1[C@@]3(C)CC[C@H](O)C(C)(C)[C@@H]3[C@@H](O)C[C@]12C [PPT, 20(S)-protopanaxatriol]
Papp,AB (Caco-2 cell monolayers): 3.72 ± 0.56 × 10^−6 cm/s
Half-Life [4]: 20.4 ± 2.3 h
MRT [4]: 20.2 ± 2.2 h
Alteration of ginsenoside by fermentation of RGE with LAB ([5]; 7 days incubation): significantly increased
Fecal recovery, change by the amoxicillin treatment [6]: significantly decreased
Fecal recovery, change by LAB treatment [7]: significantly increased
Plasma protein binding ([2]; 1 μM, mouse plasma): over 99%

CC(C)=CCC[C@](C)(O)[C@H]1CC[C@]2(C)[C@@H]1[C@H](O)C[C@@H]1[C@@]3(C)CC[C@H](O[C@@H]4O[C@H](CO)[C@@H](O)[C@H](O)[C@H]4O[C@@H]4O[C@H](CO)[C@@H](O)[C@H](O)[C@H]4O)C(C)(C)[C@@H]3CC[C@]12C [GRg3]
Increase of ginsenoside by fermentation of RGE with LAB ([5]; 7 days, relative to the first day): about 30%
Fecal recovery, change by the amoxicillin treatment [6]: increased
Fecal recovery, change by LAB treatment [7]: significantly decreased
AUC ([8]; Amoxicillin + LAB (LAB 2 g/kg once daily 7 days), AUC 0 to 48 h): 25.3 ± 10.6 ng·h/mL
Cmax ([8]; Amoxicillin + LAB): 4.8 ± 1.9 ng/mL
Half-Life ([8]; Amoxicillin + LAB): 5.3 ± 1.1 h
MRT ([8]; Amoxicillin + LAB): 3.5 ± 0.9 h
Tmax ([8]; Amoxicillin + LAB): 2.5 ± 1.0 h
Detection in mouse plasma following repeated LAB administration in addition to amoxicillin [8]: detected
Detection in plasma, control mice and amoxicillin group [8]: not detected
Plasma exposure / pharmacokinetic parameters, LAB treatment compared with amoxicillin group [8]: increased
Metabolite formation on incubation of single ginsenoside with LAB [9]: GRh2 and PPD were produced
Increase of plasma exposure over the 6-fold dose range [10]: 7.3 fold

CC1(C)S[C@@H]2[C@H](NC(=O)[C@H](N)c3ccc(O)cc3)C(=O)N2[C@H]1C(=O)O [amoxicillin]
Concentration of amoxicillin that must be maintained to inhibit the growth of LAB (LAB): ≤ 2 µg/mL
Plasma amoxicillin concentration [11]: 0.9 to 1.8 µg/mL

CC(C)=CCC[C@](C)(O)[C@H]1CC[C@]2(C)[C@@H]1[C@H](O)C[C@@H]1[C@@]3(C)CC[C@H](O)C(C)(C)[C@@H]3CC[C@]12C [PPD, 20(S)-proptopanaxadiol]
Half-Life [4]: 7.9 ± 1.8 h
MRT [4]: 12.6 ± 4.7 h
Alteration of ginsenoside by fermentation of RGE with LAB [12]: significantly increased
